Tests used:
[1] = tested on: human hepatocellular carcinoma huh-7 cells; test: Photosensitizer-mediated PDT, in vitro proliferation (MTT), huh-7; format: cell-based
Protocol: (§1) Several kinds of tumor cells (human cervical cancer Hela cells, human hepatocellular carcinoma huh-7 cells and murine mammary carcinoma 4T1 cells) cultured in vitro from a variety of tissues were taken as cell models, so as to investigate the photodynamic effects mediated by different doses of CEFN, CEFO, Ce6 and HPPH on the three different tumor cells (n=3). The specific experimental procedures were carried out as follows.
(§2) Cells in the logarithmic growth phase were harvested and seeded in a 24-well plate. After growing to a confluence of 70-80%, the cells were randomly divided into a control group (free of drug and light irradiation), a drug group and a photodynamic group. The CEFN, CEFO, Ce6 and HPPH were added respectively in dark, and for each drug, four final concentrations 1, 2, 5, and 10 μg/mL were set with 3 replicates for each group. After the co-incubation, the groups were treated individually. Regarding the photodynamic group, the light irradiation was performed at a wavelength of 660 nm and three different light intensities, i.e., 2, 4 and 8 J/cm^2. After that, each group was digested, and were inoculated into a 96-well plate at 100 μL per well with 4 replicates for each treatment. 24 hours later, the 96-well plate was subjected to MTT assay as follows. Each well was added with 20 μL of MTT (3-4,5-dimethylthiazol-2,5-diphenyltetrazolium bromide) solution in the dark and incubated for 4 hours. The supernatant was discarded, and the residue was dissolved with 150 μL of dimethyl sulfoxide for 15 min. After that, the 96-well plate was measured by a microplate reader for the absorbance (OD value). The relative cell viability was calculated as follows: relative cell viability=OD value of experimental group/OD value of control group*100%.

[2] = tested on: murine mammary carcinoma 4T1 cells; test: Antitumor activity as photosensitizers on tumor-bearing mice (two PDT treatments); format: in vivo; settings: for Inhibitory rate (average ± SD, %) / Tumor weight (average ± SD, g): 0.25 mg/kg tail vein, two PDT treatments one week apart, 660 nm, 150 Joule/cm^2, 14 days after treatment; for Body weight At the beginning / Body weight At the end: 0.25 mg/kg, two PDT treatments, mice, in g (unit assumed)
Protocol: (§3) The murine mammary carcinoma cells (4T1 line) were subjected to adherent culture. After growing to a confluence of 70%-80%, the cells in the culture flask were routinely digested, centrifuged and counted, and then resuspended with 0.85% normal saline to a density of 1×10^7 cells/mL. The cell suspension was injected into the left lateral middle axillary subcutaneous part of […] Bal b/c healthy mice (female, aged 6-8 weeks) at 0.1 mL/mouse. When the tumor diameter, which was observed every other day, reached 0.6-0.8 cm, the mice with well-growing tumors and no ulcers on the epidermis were selected for grouped treatment.
(2) Mice with similar body weight and uniform tumor size are selected and randomly divided into 4 groups with 6 mice for each group. After inoculation of 4T1 cells and the tumor volume grows to 50˜80 mm^3, the mice were subjected to a first drug administration from the tail vein by group.
6 h after the drug administration, the mice were fixed to expose the tumor growth site. As a first PDT treatment, light irradiation was performed for 8 min, using PDT-660 photodynamic therapy equipment at the laser wavelength of 660 nm and the light dose of 150 Joule/cm^2. One week later, the second PDT treatment (the dosage and lighting conditions were the same as those of the first PDT treatment) was performed. The mice were sacrificed 14 days after the treatment. The tumor was removed, weighed and recorded.

[3] = tested on: murine mammary carcinoma 4T1 cells; test: Antitumor activity as photosensitizers on tumor-bearing mice (one PDT treatment); format: in vivo; settings: for Inhibitory rate (average ± SD, %) / Tumor weight (average ± SD, g): 660 nm, 75 Joule/cm^2 6 h after dosing, 7 days after PDT; for Body weight At the begining / Body weight At the end: one PDT treatment, mice, in g (unit assumed)
Protocol: as §3
(1) Mice with similar body weight and uniform tumor size are selected and randomly divided into 7 groups with 6 mice for each group. After inoculation for 48 h, the mice were subjected to drug administration separately from the tail vein by group.
6 h after the drug administration, the mice were fixed to expose the tumor growth site. Light irradiation was performed for 8 min, using PDT-660 photodynamic therapy equipment at a laser wavelength of 660 nm and a light dose of 75 Joule/cm^2. Then both of the mice growth and tumor growth are observed continuously. 7 days after photodynamic therapy, the animals were sacrificed. The tumor was stripped and weighed, and the body weight was recorded.

[4] = tested on: murine mammary carcinoma 4T1 cells; test: Photosensitizer-mediated PDT, in vitro proliferation (MTT), 4T1; format: cell-based
Protocol: as §1, §2
In this experiment, photodynamic effect mediated by the compounds (except CEFO and CEFN) in different Examples of this disclosure on the murine mammary carcinoma 4T1 cells was investigated. The experimental procedures are carried out as follows. Cells in the logarithmic growth phase were harvested and seeded in a 24-well plate. After growing to a confluence of 70-80%, the cells were randomly divided into multiple photodynamic groups and multiple no-light control groups. The compounds (as shown in Table 8a) with a final concentration of 10 μg/mL were added to each group respectively in dark with 3 replicates for each group, so as to co-incubate the cells with the drug. Regarding the multiple photodynamic groups, the light irradiation was performed at a wavelength of 660 nm and the light intensity of 8 J/cm^2. After that, each group was digested, and were inoculated into a 96-well plate at 100 μL per well with 4 replicates for light treatment and no light treatment. 24 hours later, the 96-well plate was measured by MTT assay as follows. Each well was added with 20 μL of MTT (3-4,5-dimethylthiazol-2,5-diphenyltetrazolium bromide) solution in the dark and incubated for 4 hours. The supernatant was discarded, and the residue was dissolved with 150 μL of dimethyl sulfoxide for 15 min. After that, the 96-well plate was measured by a microplate reader for the absorbance (OD value). The relative cell viability of the murine mammary carcinoma 4T1 cells was calculated as follows according to the measured absorbance (OD value) in each group: relative cell viability=OD value of experimental group/OD value of control group*100%.

## 3-hexoxymethyl-3-devinyl-chlorin e4 disodium salt [CEFO]
[1]; 1 μg/mL, 660 nm, 2 J/cm^2
  cell viability (%): 63 ± 3%
[1]; 1 μg/mL, 660 nm, 4 J/cm^2
  cell viability (%): 60 ± 3%
[1]; 1 μg/mL, 660 nm, 8 J/cm^2
  cell viability (%): 53 ± 3%
[1]; 1 μg/mL, no light
  cell viability (%): 99 ± 2%
[1]; 2 μg/mL, 660 nm, 2 J/cm^2
  cell viability (%): 58 ± 1%
[1]; 2 μg/mL, 660 nm, 4 J/cm^2
  cell viability (%): 53 ± 3%
[1]; 2 μg/mL, 660 nm, 8 J/cm^2
  cell viability (%): 30 ± 2%
[1]; 2 μg/mL, no light
  cell viability (%): 99 ± 2%
[1]; 5 μg/mL, 660 nm, 2 J/cm^2
  cell viability (%): 39 ± 2%
[1]; 5 μg/mL, 660 nm, 4 J/cm^2
  cell viability (%): 24 ± 2%
[1]; 5 μg/mL, 660 nm, 8 J/cm^2
  cell viability (%): 27 ± 1%
[1]; 5 μg/mL, no light
  cell viability (%): 97 ± 3%
[1]; 10 μg/mL, 660 nm, 2 J/cm^2
  cell viability (%): 25 ± 2%
[1]; 10 μg/mL, 660 nm, 4 J/cm^2
  cell viability (%): 9 ± 1%
[1]; 10 μg/mL, 660 nm, 8 J/cm^2
  cell viability (%): 7 ± 1%
[1]; 10 μg/mL, no light
  cell viability (%): 93 ± 4%
[2]
  Inhibitory rate (average ± SD, %): 96.9 ± 3.1%
  Tumor weight (average ± SD, g): 0.029 ± 0.028 g
  Body weight At the beginning: 20.2 ± 0.2
  Body weight At the end: 22.2 ± 0.5
[3]; 0.2 mg/kg tail vein
  Inhibitory rate (average ± SD, %): 87.0 ± 3.1%
  Tumor weight (average ± SD, g): 0.021 ± 0.005 g
[3]; 0.2 mg/kg
  Body weight At the begining: 20.4 ± 0.3
  Body weight At the end: 21.5 ± 0.3
[3]; 0.4 mg/kg tail vein
  Inhibitory rate (average ± SD, %): 97.5 ± 0.4%
  Tumor weight (average ± SD, g): 0.004 ± 0.001 g
[3]; 0.4 mg/kg
  Body weight At the begining: 20.7 ± 0.4
  Body weight At the end: 21.8 ± 0.4
[4]; 1 μg/mL, 660 nm, 2 J/cm^2
  cell viability (%): 86 ± 3%
[4]; 1 μg/mL, 660 nm, 4 J/cm^2
  cell viability (%): 84 ± 4%
[4]; 1 μg/mL, 660 nm, 8 J/cm^2
  cell viability (%): 78 ± 3%
[4]; 1 μg/mL, no light
  cell viability (%): 103 ± 2%
[4]; 2 μg/mL, 660 nm, 2 J/cm^2
  cell viability (%): 67 ± 3%
[4]; 2 μg/mL, 660 nm, 4 J/cm^2
  cell viability (%): 41 ± 3%
[4]; 2 μg/mL, 660 nm, 8 J/cm^2
  cell viability (%): 39 ± 2%
[4]; 2 μg/mL, no light
  cell viability (%): 103 ± 2%
[4]; 5 μg/mL, 660 nm, 2 J/cm^2
  cell viability (%): 38 ± 2%
[4]; 5 μg/mL, 660 nm, 4 J/cm^2
  cell viability (%): 21 ± 2%
[4]; 5 μg/mL, 660 nm, 8 J/cm^2
  cell viability (%): 19 ± 42%
[4]; 5 μg/mL, no light
  cell viability (%): 99 ± 2%
[4]; 10 μg/mL, 660 nm, 2 J/cm^2
  cell viability (%): 29 ± 1%
[4]; 10 μg/mL, 660 nm, 4 J/cm^2
  cell viability (%): 5 ± 1%
[4]; 10 μg/mL, 660 nm, 8 J/cm^2
  cell viability (%): 3 ± 1%
[4]; 10 μg/mL, no light
  cell viability (%): 100 ± 3%

## 3-n-hexylaminomethyl-3-devinyl-chlorin e4 disodium salt [CEFN]
[1]; 1 μg/mL, 660 nm, 2 J/cm^2
  cell viability (%): 101 ± 3%
[1]; 1 μg/mL, 660 nm, 4 J/cm^2
  cell viability (%): 78 ± 3%
[1]; 1 μg/mL, 660 nm, 8 J/cm^2
  cell viability (%): 90 ± 3%
[1]; 1 μg/mL, no light
  cell viability (%): 97 ± 2%
[1]; 2 μg/mL, 660 nm, 2 J/cm^2
  cell viability (%): 87 ± 2%
[1]; 2 μg/mL, 660 nm, 4 J/cm^2
  cell viability (%): 68 ± 2%
[1]; 2 μg/mL, 660 nm, 8 J/cm^2
  cell viability (%): 64 ± 3%
[1]; 2 μg/mL, no light
  cell viability (%): 95 ± 3%
[1]; 5 μg/mL, 660 nm, 2 J/cm^2
  cell viability (%): 61 ± 2%
[1]; 5 μg/mL, 660 nm, 4 J/cm^2
  cell viability (%): 55 ± 3%
[1]; 5 μg/mL, 660 nm, 8 J/cm^2
  cell viability (%): 47 ± 2%
[1]; 5 μg/mL, no light
  cell viability (%): 93 ± 3%
[1]; 10 μg/mL, 660 nm, 2 J/cm^2
  cell viability (%): 50 ± 2%
[1]; 10 μg/mL, 660 nm, 4 J/cm^2
  cell viability (%): 12 ± 3%
[1]; 10 μg/mL, 660 nm, 8 J/cm^2
  cell viability (%): 9 ± 2%
[1]; 10 μg/mL, no light
  cell viability (%): 93 ± 1%
[2]
  Inhibitory rate (average ± SD, %): 86.1 ± 3.5%
  Tumor weight (average ± SD, g): 0.132 ± 0.032 g
  Body weight At the beginning: 20.3 ± 0.3
  Body weight At the end: 22.4 ± 0.4
[3]; 0.2 mg/kg tail vein
  Inhibitory rate (average ± SD, %): 68.5 ± 1.7%
  Tumor weight (average ± SD, g): 0.051 ± 0.003 g
[3]; 0.2 mg/kg
  Body weight At the begining: 20.6 ± 0.6
  Body weight At the end: 21.7 ± 0.5
[3]; 0.4 mg/kg tail vein
  Inhibitory rate (average ± SD, %): 82.7 ± 3.7%
  Tumor weight (average ± SD, g): 0.028 ± 0.006 g
[3]; 0.4 mg/kg
  Body weight At the begining: 20.5 ± 0.4
  Body weight At the end: 21.6 ± 0.5
[4]; 1 μg/mL, 660 nm, 2 J/cm^2
  cell viability (%): 97 ± 2%
[4]; 1 μg/mL, 660 nm, 4 J/cm^2
  cell viability (%): 89 ± 3%
[4]; 1 μg/mL, 660 nm, 8 J/cm^2
  cell viability (%): 81 ± 3%
[4]; 1 μg/mL, no light
  cell viability (%): 97 ± 3%
[4]; 2 μg/mL, 660 nm, 2 J/cm^2
  cell viability (%): 79 ± 3%
[4]; 2 μg/mL, 660 nm, 4 J/cm^2
  cell viability (%): 52 ± 2%
[4]; 2 μg/mL, 660 nm, 8 J/cm^2
  cell viability (%): 39 ± 2%
[4]; 5 μg/mL, 660 nm, 2 J/cm^2
  cell viability (%): 59 ± 2%
[4]; 5 μg/mL, 660 nm, 4 J/cm^2
  cell viability (%): 24 ± 3%
[4]; 5 μg/mL, 660 nm, 8 J/cm^2
  cell viability (%): 18 ± 1%
[4]; 5 μg/mL, no light
  cell viability (%): 98 ± 2%
[4]; 10 μg/mL, 660 nm, 2 J/cm^2
  cell viability (%): 38 ± 3%
[4]; 10 μg/mL, 660 nm, 4 J/cm^2
  cell viability (%): 10 ± 2%
[4]; 10 μg/mL, 660 nm, 8 J/cm^2
  cell viability (%): 8 ± 3%
[4]; 10 μg/mL, no light
  cell viability (%): 101 ± 3%
